Results from US20210255193A1, “LYSINE REACTIVE PROBES AND USES THEREOF” (The Scripps Research Institute, priority 2017, published 2021).

Key:
Assay in all cases: competitive isoTOP-ABPP
Format in all cases: binding
[1] = biological target: T1, OLA1 Obg-like ATPase 1 (Homo sapiens, UniProt Q9NTK5); settings: 50 uM, in vitro; for R value (DMSO/fragment) for probe 1 labeling: Q9NTK5_K248; for R value (DMSO/fragment) for probe 1 labeling / isoTOP-ABPP reactivity ratio at lysine Q9NTK5_K248: 231 sol; for isoTOP-ABPP ratio (R) at liganded lysine Q9NTK5_K248: sol, 231
T1 construct: endogenous in cells; host or cells: MDA-MB-231 (soluble fraction of lysate)
Method in brief: (§1)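 Lysate + fragment (50 μM activated ester / 100 μM guanidinylating agent) or DMSO → 0.1 mM STP-alkyne, 1 h, RT → CuAAC to TEV tags (compound light, DMSO heavy) → LC-MS. R = heavy/light MS1 area; liganded lysine if R≥4.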

[2] = biological target: T2, CUL2 Cullin-2 (Homo sapiens, UniProt Q13617); settings: 50 uM, in vitro; for R value (DMSO/fragment) for probe 1 labeling: Q13617_K489; for R value (DMSO/fragment) for probe 1 labeling / isoTOP-ABPP reactivity ratio at lysine Q13617_K489: 231 sol; for isoTOP-ABPP ratio (R) at liganded lysine Q13617_K489: sol, 231
T2 construct: isoTOP-ABPP experiments performed in cell lysates (in vitro); endogenous in cells; host or cells: soluble proteome of human cancer cell lines (MDA-MB-231, Ramos, Jurkat)
T2 sequence (Q13617 whole entry, the tested form may be a part): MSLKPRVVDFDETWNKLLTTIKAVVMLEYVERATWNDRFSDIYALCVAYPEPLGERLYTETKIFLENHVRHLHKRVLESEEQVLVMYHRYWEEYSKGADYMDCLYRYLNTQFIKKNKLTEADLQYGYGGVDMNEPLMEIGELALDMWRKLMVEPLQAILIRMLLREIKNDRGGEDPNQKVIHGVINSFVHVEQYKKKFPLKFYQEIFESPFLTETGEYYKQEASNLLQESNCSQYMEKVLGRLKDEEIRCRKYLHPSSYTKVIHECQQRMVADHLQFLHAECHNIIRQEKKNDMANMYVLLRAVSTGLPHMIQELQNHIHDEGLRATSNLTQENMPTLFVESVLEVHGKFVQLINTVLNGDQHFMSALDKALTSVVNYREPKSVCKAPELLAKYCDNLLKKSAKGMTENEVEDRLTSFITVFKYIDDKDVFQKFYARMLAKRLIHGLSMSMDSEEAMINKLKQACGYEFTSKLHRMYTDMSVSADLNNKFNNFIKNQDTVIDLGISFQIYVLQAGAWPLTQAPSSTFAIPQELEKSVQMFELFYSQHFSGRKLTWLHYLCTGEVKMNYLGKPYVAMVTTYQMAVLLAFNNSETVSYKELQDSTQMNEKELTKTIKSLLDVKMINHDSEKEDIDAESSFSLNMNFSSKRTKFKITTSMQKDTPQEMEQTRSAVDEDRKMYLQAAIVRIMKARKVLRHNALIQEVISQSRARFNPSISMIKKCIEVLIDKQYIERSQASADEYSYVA
Method in brief: as §1

[3] = biological target: T3, XRCC6 X-ray repair cross-complementing protein 6 (Homo sapiens, UniProt P12956); settings: 50 uM, in vitro; for R value (DMSO/fragment) for probe 1 labeling: P12956_K351; for R value (DMSO/fragment) for probe 1 labeling / isoTOP-ABPP reactivity ratio at lysine P12956_K351: 231 sol; for isoTOP-ABPP ratio (R) at liganded lysine P12956_K351: sol, 231
T3 construct: isoTOP-ABPP experiments performed in cell lysates (in vitro); endogenous in cells; host or cells: soluble proteome of human cancer cell lines (MDA-MB-231; Ramos and Jurkat also prepared)
T3 sequence (P12956 2-609 limits assumed): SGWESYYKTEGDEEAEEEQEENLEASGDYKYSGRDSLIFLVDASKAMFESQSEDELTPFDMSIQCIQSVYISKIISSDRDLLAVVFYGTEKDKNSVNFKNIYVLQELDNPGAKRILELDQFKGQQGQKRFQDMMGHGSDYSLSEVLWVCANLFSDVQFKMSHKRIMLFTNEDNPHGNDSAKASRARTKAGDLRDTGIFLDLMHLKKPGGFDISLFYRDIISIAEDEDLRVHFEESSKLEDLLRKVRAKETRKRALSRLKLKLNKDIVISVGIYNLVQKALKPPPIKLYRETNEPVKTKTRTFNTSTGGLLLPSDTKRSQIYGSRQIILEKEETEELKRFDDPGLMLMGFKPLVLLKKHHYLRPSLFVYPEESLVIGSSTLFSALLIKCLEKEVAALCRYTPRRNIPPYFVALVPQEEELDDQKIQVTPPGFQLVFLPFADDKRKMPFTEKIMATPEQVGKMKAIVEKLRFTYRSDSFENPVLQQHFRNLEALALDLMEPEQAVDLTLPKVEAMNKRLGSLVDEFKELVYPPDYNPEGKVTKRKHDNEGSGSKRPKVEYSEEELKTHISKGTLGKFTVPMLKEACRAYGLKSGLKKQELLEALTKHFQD
T3 sequence (P13010 2-732 partner limits assumed): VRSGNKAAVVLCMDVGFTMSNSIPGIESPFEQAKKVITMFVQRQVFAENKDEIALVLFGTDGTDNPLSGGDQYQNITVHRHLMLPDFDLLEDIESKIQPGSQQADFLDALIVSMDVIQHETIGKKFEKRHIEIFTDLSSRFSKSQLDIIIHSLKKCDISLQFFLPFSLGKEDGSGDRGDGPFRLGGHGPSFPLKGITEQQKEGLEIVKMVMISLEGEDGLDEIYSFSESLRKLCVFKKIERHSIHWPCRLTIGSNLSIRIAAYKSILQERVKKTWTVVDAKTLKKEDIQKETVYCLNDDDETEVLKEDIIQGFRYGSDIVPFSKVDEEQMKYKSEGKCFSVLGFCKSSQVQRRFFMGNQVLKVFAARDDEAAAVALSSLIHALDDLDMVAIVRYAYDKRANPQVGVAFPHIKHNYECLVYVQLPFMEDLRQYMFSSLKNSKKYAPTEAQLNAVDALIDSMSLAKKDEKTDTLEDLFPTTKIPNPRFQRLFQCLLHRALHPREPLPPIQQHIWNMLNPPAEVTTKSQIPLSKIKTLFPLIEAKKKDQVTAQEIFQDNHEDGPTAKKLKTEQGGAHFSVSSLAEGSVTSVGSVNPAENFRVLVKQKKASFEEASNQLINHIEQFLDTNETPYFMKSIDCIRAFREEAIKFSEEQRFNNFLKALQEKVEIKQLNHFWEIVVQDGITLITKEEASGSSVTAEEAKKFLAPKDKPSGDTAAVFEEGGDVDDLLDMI
Method in brief: as §1

[4] = biological target: T4, NAA25 N-alpha-acetyltransferase 25, NatB auxiliary subunit (Homo sapiens, UniProt Q14CX7); settings: 50 uM, in vitro
T4 construct: isoTOP-ABPP experiments performed in cell lysates (in vitro); endogenous in cells; host or cells: soluble proteome of human cancer cell lines (MDA-MB-231; Ramos and Jurkat also prepared)
T4 sequence (Q14CX7 whole entry): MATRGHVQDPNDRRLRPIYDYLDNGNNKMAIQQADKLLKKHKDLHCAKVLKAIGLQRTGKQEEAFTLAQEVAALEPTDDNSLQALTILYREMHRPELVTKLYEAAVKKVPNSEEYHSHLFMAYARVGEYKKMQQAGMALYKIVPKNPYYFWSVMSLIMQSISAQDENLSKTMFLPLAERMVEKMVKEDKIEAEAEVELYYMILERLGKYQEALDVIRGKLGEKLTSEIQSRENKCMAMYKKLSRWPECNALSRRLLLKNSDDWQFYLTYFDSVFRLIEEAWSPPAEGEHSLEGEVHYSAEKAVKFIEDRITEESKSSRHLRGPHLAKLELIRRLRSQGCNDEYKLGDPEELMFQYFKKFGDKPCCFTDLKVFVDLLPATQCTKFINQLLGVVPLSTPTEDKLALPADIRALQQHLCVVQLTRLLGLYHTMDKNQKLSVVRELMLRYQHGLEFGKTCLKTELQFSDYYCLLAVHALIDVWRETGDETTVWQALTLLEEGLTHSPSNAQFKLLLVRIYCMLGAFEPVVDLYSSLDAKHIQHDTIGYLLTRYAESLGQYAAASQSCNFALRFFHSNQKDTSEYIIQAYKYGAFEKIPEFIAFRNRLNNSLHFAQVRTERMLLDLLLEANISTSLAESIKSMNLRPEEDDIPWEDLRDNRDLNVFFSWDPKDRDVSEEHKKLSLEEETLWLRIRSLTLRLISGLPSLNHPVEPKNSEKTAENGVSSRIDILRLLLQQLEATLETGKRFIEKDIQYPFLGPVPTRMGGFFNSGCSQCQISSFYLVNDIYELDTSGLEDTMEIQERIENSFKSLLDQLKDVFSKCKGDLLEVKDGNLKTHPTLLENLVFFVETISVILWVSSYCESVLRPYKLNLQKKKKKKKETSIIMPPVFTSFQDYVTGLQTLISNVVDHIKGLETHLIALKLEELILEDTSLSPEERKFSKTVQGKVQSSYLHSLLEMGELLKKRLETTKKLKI
Method in brief: as §1

[5] = biological target: T5, G6PD Glucose-6-phosphate 1-dehydrogenase (Homo sapiens, UniProt P11413); settings: 50 uM, in vitro; for R value (DMSO/fragment) for probe 1 labeling: P11413_K171; for R value (DMSO/fragment) for probe 1 labeling / isoTOP-ABPP reactivity ratio at lysine P11413_K171: 231 sol; for isoTOP-ABPP ratio (R) at liganded lysine P11413_K171: sol, 231
T5 construct: isoTOP-ABPP experiments performed in cell lysates (in vitro); endogenous in cells; host or cells: MDA-MB-231 soluble lysate
T5 sequence (P11413 whole entry, the tested form may be a part): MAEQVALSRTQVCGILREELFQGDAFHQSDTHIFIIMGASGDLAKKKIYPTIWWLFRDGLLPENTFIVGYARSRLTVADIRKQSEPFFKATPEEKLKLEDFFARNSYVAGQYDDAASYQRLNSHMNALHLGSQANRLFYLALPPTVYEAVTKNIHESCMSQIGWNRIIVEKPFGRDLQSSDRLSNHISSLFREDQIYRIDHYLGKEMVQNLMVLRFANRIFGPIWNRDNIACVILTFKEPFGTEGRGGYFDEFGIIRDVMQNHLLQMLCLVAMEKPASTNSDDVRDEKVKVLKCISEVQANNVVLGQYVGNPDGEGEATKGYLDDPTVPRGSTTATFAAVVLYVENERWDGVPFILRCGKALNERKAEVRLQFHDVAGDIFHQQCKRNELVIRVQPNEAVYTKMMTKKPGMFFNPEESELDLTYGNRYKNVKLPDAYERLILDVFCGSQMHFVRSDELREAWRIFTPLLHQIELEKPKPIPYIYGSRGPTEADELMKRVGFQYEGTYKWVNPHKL
Method in brief: as §1

[6] = biological target: T6, WARS Tryptophan--tRNA ligase, cytoplasmic (Homo sapiens, UniProt P23381); settings: 50 uM, in vitro; for isoTOP-ABPP ratio (R) at liganded lysine P23381_K256: sol, 231
T6 construct: isoTOP-ABPP experiments performed in cell lysates (in vitro); endogenous in cells; host or cells: soluble proteome of human cancer cell lines (MDA-MB-231; Ramos and Jurkat also prepared)
T6 sequence (P23381 1-471): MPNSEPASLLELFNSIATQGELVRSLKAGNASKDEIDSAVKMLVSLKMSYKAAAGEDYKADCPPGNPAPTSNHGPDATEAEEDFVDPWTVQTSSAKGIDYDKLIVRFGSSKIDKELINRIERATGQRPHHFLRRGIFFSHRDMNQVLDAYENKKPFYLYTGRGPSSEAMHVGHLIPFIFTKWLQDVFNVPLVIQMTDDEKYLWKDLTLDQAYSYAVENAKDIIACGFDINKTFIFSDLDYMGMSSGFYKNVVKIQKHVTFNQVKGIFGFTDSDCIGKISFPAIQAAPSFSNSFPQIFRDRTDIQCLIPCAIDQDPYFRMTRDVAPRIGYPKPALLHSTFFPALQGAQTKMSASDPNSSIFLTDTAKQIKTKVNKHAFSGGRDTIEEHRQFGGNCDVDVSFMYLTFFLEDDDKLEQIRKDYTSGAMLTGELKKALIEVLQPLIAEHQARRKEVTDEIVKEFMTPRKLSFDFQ
Method in brief: as §1

[7] = biological target: T7, TRMT10C Mitochondrial ribonuclease P protein 1 (Homo sapiens, UniProt Q7L0Y3); settings: 50 uM, in vitro
T7 construct: isoTOP-ABPP experiments performed in cell lysates (in vitro); endogenous in cells; host or cells: soluble proteome of human cancer cell lines (MDA-MB-231; Ramos and Jurkat also prepared)
T7 sequence (Q7L0Y3 40-403): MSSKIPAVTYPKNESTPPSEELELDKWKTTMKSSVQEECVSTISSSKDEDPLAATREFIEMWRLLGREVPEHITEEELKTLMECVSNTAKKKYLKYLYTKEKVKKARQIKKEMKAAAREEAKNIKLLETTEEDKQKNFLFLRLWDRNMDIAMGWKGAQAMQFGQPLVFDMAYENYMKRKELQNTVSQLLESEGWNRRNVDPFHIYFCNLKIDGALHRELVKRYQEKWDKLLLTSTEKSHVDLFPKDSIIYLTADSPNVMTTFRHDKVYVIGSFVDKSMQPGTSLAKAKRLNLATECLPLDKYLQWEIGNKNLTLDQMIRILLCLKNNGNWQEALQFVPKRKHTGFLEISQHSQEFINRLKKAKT
Method in brief: as §1

O=C(CCc1cn(-c2ccccc2)nc1-c1ccccc1)Oc1c(F)c(F)c(F)c(F)c1F [fragment 19, Pentafluorophenyl 3-(1,3-diphenyl-1H-pyrazol-4-yl)propanoate]
R value (DMSO/fragment) for probe 1 labeling [1]: 1.0 | R value (DMSO/fragment) for probe 1 labeling [2]: 0.8 | R value (DMSO/fragment) for probe 1 labeling [3]: 1.7 | R value (DMSO/fragment) for probe 1 labeling ([4]; Q14CX7_K575, 231 sol): 1.0 | R value (DMSO/fragment) for probe 1 labeling [5]: 0.9 | R value (DMSO/fragment) for probe 1 labeling ([6]; P23381_K256, 231 sol): 1.2

COc1cc(CCC(=O)Oc2c(F)c(F)c(F)c(F)c2F)cc(OC)c1OC [fragment 23, Pentafluorophenyl 3-(3,4,5-trimethoxyphenyl)propanoate]
R value (DMSO/fragment) for probe 1 labeling [1]: 1.0 | R value (DMSO/fragment) for probe 1 labeling [2]: 0.9 | R value (DMSO/fragment) for probe 1 labeling [3]: 1.2 | R value (DMSO/fragment) for probe 1 labeling ([7]; Q7L0Y3_K325, 231 sol): 1.3 | R value (DMSO/fragment) for probe 1 labeling [5]: 2.1

O=C(Oc1c(F)c(F)c(F)c(F)c1F)C1CCN(C(=O)OCc2ccccc2)CC1 [fragment 24, 1-Benzyl 4-(pentafluorophenyl) piperidine-1,4-dicarboxylate]
isoTOP-ABPP reactivity ratio at lysine Q9NTK5_K248 [1]: 1.1 | isoTOP-ABPP reactivity ratio at lysine Q13617_K489 [2]: 0.9 | isoTOP-ABPP reactivity ratio at lysine P12956_K351 [3]: 1.3 | isoTOP-ABPP reactivity ratio at lysine Q14CX7_K575 ([4]; 231 sol): 1.1 | isoTOP-ABPP reactivity ratio at lysine Q7L0Y3_K325 ([7]; 231 sol): 1.4 | isoTOP-ABPP reactivity ratio at lysine P11413_K171 [5]: 0.9

O=C(CCc1coc2cc(F)ccc2c1=O)Oc1c(F)c(F)c(F)c(F)c1F [fragment 26, Pentafluorophenyl 3-(7-fluoro-4-oxo-4H-chromen-3-yl)propanoate]
isoTOP-ABPP reactivity ratio at lysine Q9NTK5_K248 [1]: 1.0 | isoTOP-ABPP reactivity ratio at lysine Q13617_K489 [2]: 0.9 | isoTOP-ABPP reactivity ratio at lysine P12956_K351 [3]: 2.1 | isoTOP-ABPP reactivity ratio at lysine Q14CX7_K575 ([4]; 231 sol): 0.9 | isoTOP-ABPP reactivity ratio at lysine P11413_K171 [5]: 1.0 | isoTOP-ABPP reactivity ratio at lysine P23381_K256 ([6]; 231 sol): 2.3

O=C(CN1C(=O)c2ccccc2C1=O)Oc1c(F)c(F)c(F)c(F)c1F [fragment 27, Pentafluorophenyl 2-(1,3-dioxoisoindolin-2-yl)acetate]
isoTOP-ABPP reactivity ratio at lysine Q9NTK5_K248 [1]: 1.1 | isoTOP-ABPP reactivity ratio at lysine Q13617_K489 [2]: 1.1 | isoTOP-ABPP reactivity ratio at lysine P12956_K351 [3]: 3.1 | isoTOP-ABPP reactivity ratio at lysine Q14CX7_K575 ([4]; 231 sol): 1.4 | isoTOP-ABPP reactivity ratio at lysine P11413_K171 [5]: 0.9 | isoTOP-ABPP reactivity ratio at lysine P23381_K256 ([6]; 231 sol): 2.7

CCn1cc(C(=O)Oc2c(F)c(F)c(F)c(F)c2F)c(=O)c2ccc(C)nc21 [fragment 28, Pentafluorophenyl 1-ethyl-7-methyl-4-oxo-1,4-dihydro-1,8-naphthyridine-3-carboxylate]
isoTOP-ABPP reactivity ratio at lysine Q9NTK5_K248 [1]: 1.0 | isoTOP-ABPP reactivity ratio at lysine Q13617_K489 [2]: 1.0 | isoTOP-ABPP reactivity ratio at lysine P12956_K351 [3]: 1.9 | isoTOP-ABPP reactivity ratio at lysine Q14CX7_K575 ([4]; 231 sol): 0.8 | isoTOP-ABPP reactivity ratio at lysine P11413_K171 [5]: 0.9 | isoTOP-ABPP reactivity ratio at lysine P23381_K256 ([6]; 231 sol): 1.0

O=C(Oc1ccc([N+](=O)[O-])cc1[N+](=O)[O-])C1CCN(C(=O)OCc2ccccc2)CC1 [fragment 34, 1-Benzyl 4-(2,4-dinitrophenyl) piperidine-1,4-dicarboxylate]
isoTOP-ABPP ratio (R) at liganded lysine Q9NTK5_K248 [1]: 0.9 | isoTOP-ABPP ratio (R) at liganded lysine Q13617_K489 [2]: 1.1 | isoTOP-ABPP ratio (R) at liganded lysine P12956_K351 [3]: 1.6 | isoTOP-ABPP ratio (R) at liganded lysine Q7L0Y3_K325 ([7]; sol, 231): 1.0 | isoTOP-ABPP ratio (R) at liganded lysine P11413_K171 [5]: 0.9 | isoTOP-ABPP ratio (R) at liganded lysine P23381_K256 [6]: 1.0

O=C(CCc1coc2cc(F)ccc2c1=O)Oc1ccc([N+](=O)[O-])cc1[N+](=O)[O-] [fragment 36, 2,4-Dinitrophenyl 3-(7-fluoro-4-oxo-4H-chromen-3-yl)propanoate]
isoTOP-ABPP ratio (R) at liganded lysine Q9NTK5_K248 [1]: 0.8 | isoTOP-ABPP ratio (R) at liganded lysine Q13617_K489 [2]: 1.0 | isoTOP-ABPP ratio (R) at liganded lysine P12956_K351 [3]: 2.1 | isoTOP-ABPP ratio (R) at liganded lysine Q14CX7_K575 ([4]; sol, 231): 1.5 | isoTOP-ABPP ratio (R) at liganded lysine P11413_K171 [5]: 1.0 | isoTOP-ABPP ratio (R) at liganded lysine P23381_K256 [6]: 1.0
